Laboratory results: patent US20210321649A1, “METHOD FOR DETECTING MISHANDLING AND MISUSE OF FOOD PRODUCTS” (SECURITY MATTERS LTD., priority 2016, published 2021)

Test: Solubility of marking compounds in ethanol and water (Table 1)
Settings: for Solubility in Ethanol: solvent ethanol; for Solubility in water: solvent water

| Substance | Solubility in Ethanol | Solubility in water |
| --- | --- | --- |
| Copper complexes chlorophylls [Copper complexes chlorophylls (E141)] | Soluble | Insoluble |
| Vitamin B12 | Soluble | Soluble |
